Laboratory results published in article PMC7203153, “Rational identification and characterisation of peptide ligands for targeting polysialic acid” (Scientific Reports, 2020).
Marks after values point to notes of the source that are not given here. Where a SMILES comes first, the peptide text is derived from it.

Experiment: Competitive microarray selectivity screening with α-2,8/9-PSA
Assay type: binding, Escherichia coli
Conditions: 10% competing α-2,8/9-PSA
Experimental: Competitive microarray screening with α-2,8/9-PSA was conducted in order to assess selective binding of peptides to α-2,8-PSA. The definition of percent selectivity at 10% competing glycan was applied to enable selectivity comparisons amongst a larger set of peptides[25] […] However, the use of an isomeric polymer is a more stringent assessment of selectivity; here, selective binding is guided by three-dimensional conformation and not additionally by differences in functional groups.
Peptide library synthesis, microarray preparation, and microarray screening were performed as described previously[25] with the following specifications. Siglec-related sequences were N-terminally acetylated to match the charge of the corresponding protein fragment. All peptides were printed in triplicate (60 nL spots), and each initial affinity screening was carried out at least three times. Screening was conducted with 10 μM colominic acid (CA; 5 mL per microarray), the Escherichia coli homolog of α-2,8-PSA identical in structure to human-derived PSA[67], and with antibody-based chemiluminescent detection of CA. For selectivity screening, microarrays were challenged with 10 μM CA with 0, 0.1, 1, and 10 μM α-2,8/9-PSA in separate conditions (5 mL total volume each), where molar concentrations were based on molecular weight estimation of synthesized 2,8/9-PSA (details on α-2,8/9-PSA production, purification, and analysis are provided in Supplementary Information). Selectivity screening with monomeric sialic acid was conducted with mass and molar equivalents of N-acetylneuraminic acid (Rose Scientific, Ltd.) along with 10 μM CA (5 mL total volume each). The mass equivalent amount of sialic acid (specifically, 970 μM sialic acid for a given volume of 10 μM CA) was calculated for CA of an average degree of polymerization of 100. For study of pH-dependent binding, affinity screening with CA was performed using PBS buffers of pH 6.0, 7.0, 7.4, and 8.0 (10 mM phosphate, 100 mM NaCl). The impact of NaCl on peptide binding was assessed at pH 7.4 with 0, 100, and 200 mM NaCl. […]

Q: With `CC(=O)N[C@@H](Cc1ccccc1)C(=O)N[C@@H](CCCCN)C(=O)NCC(=O)N[C@@H](CCCNC(=N)N)C(=O)N[C@H](C(=O)N[C@@H](CO)C(=O)N1CCC[C@H]1C(=O)N[C@@H](CCCCN)C(=O)N[C@H](C(=O)NCC(=O)N[C@@H](C)C(=O)N1CCC[C@H]1C(=O)N[C@H](C(=O)N[C@@H](C)C(=O)N[C@H](C(N)=O)[C@@H](C)O)C(C)C)[C@@H](C)O)[C@@H](C)O` [I-P24] (Ac-FKGRTSPKTGAPVAT-NH2) as the compound, how does the “selectivity mark in Table 1” value read?
A: I-P24* (Peptides with selectivity >80%)
